Results from patent publication US20240067672A1, “FLAVONE DERIVATIVE FOR TREATING TUMORS AND USE THEREOF” (SICHUAN FUSHENGYUAN TECHNOLOGY CO., LTD, priority 2019, published 2024).
Values after ≈ are worked out from the molar mass of the structure shown. Like-named read-outs stand apart in the source and are kept apart here.

Key:
[1] = tested on: HepG2 hepatoma cells; experiment: Anti-tumor activity in vitro, MTT method, HepG2; format: cell-based, human; conditions: for IC50 compared with Icaritin, HepG2 72 h: HepG2, 72 h after administration
Description: (§1) The effects of Icaritin and its derivatives on the activities of HepG2 and SMMC7721 hepatoma cells were investigated by a MTT method. […] After reaction for 48, 7 2 h, each well was added with 20 μL 5 mg/mL, of MTT solution, and incubated in a cell incubator for 3-4 h. Then the liquid in the well plates was sucked to discard. Each well was added with 150 μL of dimethyl sulfoxide (DMSO), and shaken on an enzyme-labeled instrument for 30 s at ambient temperature so that the Formazan crystals were dissolved sufficiently. The absorbance value A of each well at 570 nm was detected by the enzyme-labeled instrument, and the experiment was repeated for 3 times.

[2] = tested on: SMMC7721 hepatoma cells; experiment: Anti-tumor activity in vitro, MTT method, SMMC7721; format: cell-based, human; conditions: for IC50 compared with Icaritin, SMMC7721 72 h: SMMC7721, 72 h after administration
Description: as §1

[3] = Determination of solubility (HPLC); format: physicochemical; conditions: for solubility: 37 °C, thermodynamic from solid
Description: About 1.325 mg of Icaritin and the synthesized derivative were weighed and dissolved in 1.5 mL methanol respectively, then diluted with methanol into solutions of 10, 20, 50, 100, 150, 200, 500 μg/mL, and filtered over an organic-system filter head of 0.45 μm into sample bottles, obtaining the samples for test. Four parts of Icaritin and the synthesized derivative were weighed respectively, 1.00 mg for each part, and placed into 1.5 mL EP tubes, and 1 mL of water, normal saline, PBS, and 0.1% Tween 80 were respectively added thereto. The obtained solutions were ultrasonicated for 1 h, placed in a water bath at 37° C. overnight, and centrifuged at 10000 r/min for 3 min to collect supernatants. The supernatants were taken into sample bottles and detected by HPLC. The experiments were conducted in parallel for three times. The detection of HPLC is conducted under conditions of a chromatographic column of waters Symmetry C18, a mobile phase of a solution of methanol and water with a ratio of 80:20, a flow rate of 1.0 mL/min, a column temperature of 30° C., a detection wavelength of 210 nm, a run time of 30 min, and a sample load of 20 μL.

[4] = Homo sapiens, HepG2, 48 h, MTT, read-out: IC50 HepG2 48 h
[5] = Homo sapiens, HepG2, 72 h, MTT, read-out: IC50 HepG2 72 h
[6] = Homo sapiens, SMMC-7721, SMMC7721, 48 h, MTT, read-out: IC50 SMMC7721 48 h
[7] = Homo sapiens, SMMC-7721, SMMC7721, 72 h, MTT, read-out: IC50 SMMC7721 72 h
[8] = aqueous with cosolvent or surfactant or cyclodextrin
[9] = HepG2, 48 h, MTT, read-out: IC50 HepG2 48 h
[10] = HepG2, 72 h, MTT, read-out: IC50 HepG2 72 h
[11] = SMMC7721, 48 h, MTT, read-out: IC50 SMMC7721 48 h
[12] = SMMC7721, 72 h, MTT, read-out: IC50 SMMC7721 72 h

Row | Structure (SMILES) | IC50 [1, 4] [µM] | IC50 [1, 5] [µM] | IC50 [2, 6] [µM] | IC50 [2, 7] [µM] | solubility ([3]; aqueous buffer) [µg/mL] | solubility [3, 8] [µg/mL] | solubility ([3]; water) [µg/mL] | IC50 [1, 9] [µM] | IC50 [1, 10] [µM] | IC50 compared with Icaritin, HepG2 72 h [1] | IC50 [2, 11] [µM] | IC50 [2, 12] [µM] | Solubility, 0.1% Tween 80 [3] | Solubility, Normal Saline [3] | Solubility, PBS [3] | Solubility, Water [3] | also measured
1 | COc1ccc(-c2oc3c(CC=C(C)C)c(O)cc(O)c3c(=O)c2OC(=O)CCC(=O)OCc2cn([C@H]3O[C@@H](CO)[C@H](O)[C@@H](O)[C@@H]3O)nn2)cc1 [Compound 35] | > 100 | > 100 | > 100 | > 100 | 12 ± 1.02 (≈ 16.8 µM) | 12.1 ± 1.03 (≈ 17 µM) | 12 ± 1.23 (≈ 16.8 µM) |  |  |  |  |  |  |  |  |  | solubility compared with that of the bulk drug (Icaritin) [3]: improved effectively; solubility ([3]; saline or isotonic): 12.3 ± 1.31 µg/mL (≈ 17.3 µM)
2 | COc1ccc(-c2oc3c(CC=C(C)C)c(O)cc(O)c3c(=O)c2OC(=O)CCC(=O)OCc2cn(CCOC3OC(CO)C(O)C(O)C3O)nn2)cc1 (centres unmarked) [Compound 39] |  |  |  |  |  |  |  | > 100 | 5.56 ± 0.6 | less than that of Icaritin | > 100 | 6.65 ± 1.29 | 13.819 ± 1.323 µg/mL (≈ 18.3 µM) | 13.828 ± 1.123 µg/mL (≈ 18.3 µM) | 13.825 ± 0.937 µg/mL (≈ 18.3 µM) | 13.871 ± 1.031 µg/mL (≈ 18.4 µM) | IC50 compared with Icaritin, SMMC7721 72 h [2]: less than that of Icaritin; solubility compared with that of the bulk drug (Icaritin) [3]: improved effectively
3 | COc1ccc(-c2oc3c(CC=C(C)C)c(O)cc(O)c3c(=O)c2OC(=O)CCC(=O)OCc2cn(CCOCCO[C@H]3O[C@@H](CO)[C@H](O)[C@@H](O)[C@@H]3O)nn2)cc1 [Compound 44] | > 100 | 10.1 ± 0.32 | > 100 | > 100 | 11 ± 1.04 (≈ 13.8 µM) | 11.2 ± 1.09 (≈ 14 µM) | 11.3 ± 0.831 (≈ 14.1 µM) |  |  | less than that of Icaritin |  |  |  |  |  |  | solubility compared with that of the bulk drug (Icaritin) [3]: improved effectively; solubility ([3]; saline or isotonic): 11 ± 1.03 µg/mL (≈ 13.8 µM)
4 | COc1ccc(-c2oc3c(CC=C(C)C)c(O)cc(O)c3c(=O)c2OC(=O)CCC(=O)OCCOCCOCCOCCOCc2cn([C@H]3O[C@@H](CO)[C@H](O)[C@@H](O)[C@@H]3O)nn2)cc1 [Compound 50] | 24.1 ± 3.06 | 25.3 ± 2.11 | > 100 | 46.5 ± 3.43 | 4.53 ± 0.347 (≈ 5.11 µM) | 4.64 ± 1.27 (≈ 5.22 µM) | 4.55 ± 0.324 (≈ 5.13 µM) |  |  |  |  |  |  | Insoluble |  |  | 
5 | COc1ccc(-c2oc3c(CC=C(C)C)c(O)cc(O)c3c(=O)c2OC(=O)CCC(=O)OCCOCCOCCOCc2cn(CCO[C@H]3O[C@@H](CO)[C@H](O)[C@@H](O)[C@@H]3O)nn2)cc1 [Compound 58] | 19.7 ± 0.52 | 20 ± 2.12 | > 100 | 2.51 ± 0.72 | 3.82 ± 0.874 (≈ 4.31 µM) | 3.89 ± 0.941 (≈ 4.38 µM) | 3.64 ± 0.374 (≈ 4.1 µM) |  |  |  |  |  |  |  |  |  | IC50 compared with Icaritin, SMMC7721 72 h [2]: less than that of Icaritin; solubility ([3]; saline or isotonic): 3.68 ± 0.947 µg/mL (≈ 4.15 µM)
6 | COc1ccc(-c2oc3c(CC=C(C)C)c(O)cc(O)c3c(=O)c2OC(=O)CCC(=O)OCCOCCOCc2cn([C@H]3O[C@@H](CO)[C@H](O)[C@@H](O)[C@@H]3O)nn2)cc1 [Compound 64] | > 100 | 32.6 ± 3.12 | > 100 | > 100 | 0.991 ± 0.314 (≈ 1.24 µM) | 1.08 ± 0.756 (≈ 1.35 µM) | 2.24 ± 0.941 (≈ 2.8 µM) |  |  |  |  |  |  | Insoluble |  |  | 
7 | COc1ccc(-c2oc3c(CC=C(C)C)c(O)cc(O)c3c(=O)c2OC(=O)CCC(=O)OCCOCCOCc2cn(CCO[C@@H]3O[C@H](CO)[C@@H](O)[C@H](O)[C@H]3O)nn2)cc1 [Compound 65] | > 100 | 37.74 ± 0.2 | > 100 | > 100 |  |  |  |  |  |  |  |  | Insoluble | Insoluble | Insoluble | Insoluble | 
8 | COc1ccc(-c2oc3c(CC=C(C)C)c(O)cc(O)c3c(=O)c2OC(=O)CCC(=O)OCCOCc2cn(C3O[C@H](CO)[C@@H](O)[C@H](O)[C@H]3O)nn2)cc1 (some centres unmarked) [Compound 71] |  |  |  |  |  |  |  |  |  |  |  |  | Insoluble | Insoluble | Insoluble | Insoluble | IC50 ([1]; Homo sapiens, HepG2, 48 h, read-out: IC50 HepG2 48 h): > 100 µM; IC50 ([1]; Homo sapiens, HepG2, 72 h, read-out: IC50 HepG2 72 h): > 100 µM; IC50 ([2]; Homo sapiens, SMMC-7721, 48 h, read-out: IC50 SMMC7721 48 h): > 100 µM; IC50 ([2]; Homo sapiens, SMMC-7721, 72 h, read-out: IC50 SMMC7721 72 h): 29.7 ± 1.23 µM
9 | COc1ccc(-c2oc3c(CC=C(C)C)c(O)cc(O)c3c(=O)c2OC(=O)CCC(=O)OCCOCc2cn(CCOC3OC(CO)C(O)C(O)C3O)nn2)cc1 (centres unmarked) [Compound 72] |  |  |  |  |  |  |  | > 100 | > 100 |  | > 100 | > 100 | 5.697 ± 1.312 µg/mL (≈ 7.12 µM) | 5.673 ± 1.031 µg/mL (≈ 7.09 µM) | 5.656 ± 1.131 µg/mL (≈ 7.07 µM) | 5.852 ± 0.748 µg/mL (≈ 7.32 µM) | 
10 | COc1ccc(-c2oc3c(CC=C(C)C)c(O)cc(O)c3c(=O)c2OC(=O)CCC(=O)OCCOCc2cn(CCOCCOC3OC(CO)C(O)C(O)C3O)nn2)cc1 (centres unmarked) [Compound 73] |  |  |  |  |  |  |  | 43.2 ± 1.21 | 36.8 ± 0.65 |  | > 100 | 37.2 ± 1.36 | Insoluble | Insoluble | Insoluble | Insoluble | 
11 | COc1ccc(-c2oc3c(CC=C(C)C)c(O)cc(O)c3c(=O)c2OC(=O)CCC(=O)NCCCCCOCc2cn(C3O[C@H](CO)[C@@H](O)[C@H](O)[C@H]3O)nn2)cc1 (some centres unmarked) [Compound 81] | > 100 | 12 ± 1.23 | > 100 | 22.2 ± 1.45 |  |  |  |  |  | less than that of Icaritin |  |  | Insoluble | Insoluble | Insoluble | Insoluble | 
12 | COc1ccc(-c2oc3c(CC=C(C)C)c(O)cc(O)c3c(=O)c2OC(=O)CCC(=O)OCCCCOCc2cn(C3OC(CO)C(O)C(O)C3O)nn2)cc1 (centres unmarked) [Compound 87] |  |  |  |  |  |  |  | > 100 | 7.03 ± 0.67 | less than that of Icaritin | > 100 | 12.7 ± 1.02 |  |  |  |  | IC50 compared with Icaritin, SMMC7721 72 h [2]: less than that of Icaritin; Solubility, 0.1% Tween 80 ([3]; 0.1% Tween 80, 37° C. overnight, n = 3): 1.358 ± 0.235 µg/mL (≈ 1.73 µM); Solubility, PBS ([3]; PBS, 37° C. overnight, n = 3): Insoluble; Solubility, Normal Saline ([3]; normal saline, 37° C. overnight, n = 3): 1.386 ± 0.743 µg/mL (≈ 1.77 µM); Solubility, Water ([3]; water, 37° C. overnight, n = 3): 1.277 ± 0.836 µg/mL (≈ 1.63 µM)
13 | COc1ccc(-c2oc3c(CC=C(C)C)c(O)cc(O)c3c(=O)c2OC(=O)CCC(=O)OCCCCOCc2cn(CCOC3OC(CO)C(O)C(O)C3O)nn2)cc1 (centres unmarked) [Compound 88] |  |  |  |  |  |  |  | > 100 | > 100 |  | > 100 | 40.5 ± 1.56 | 8.384 ± 1.363 µg/mL (≈ 10.1 µM) | 7.399 ± 0.384 µg/mL (≈ 8.94 µM) | Insoluble | 7.597 ± 1.038 µg/mL (≈ 9.18 µM) | 
14 | COc1ccc(-c2oc3c(CC=C(C)C)c(O)cc(O)c3c(=O)c2OC(=O)CCC(=O)OCCCCOCc2cn(CCOCCOC3OC(CO)C(O)C(O)C3O)nn2)cc1 (centres unmarked) [Compound 89] |  |  |  |  |  |  |  | > 100 | > 100 |  | > 100 | 35.6 ± 1.36 | Insoluble | Insoluble | Insoluble | Insoluble | 
15 | COc1ccc(-c2oc3c(CC=C(C)C)c(O)cc(O)c3c(=O)c2OC(=O)CCC(=O)OCCCOCc2cn(CCO[C@H]3O[C@@H](CO)[C@H](O)[C@@H](O)[C@@H]3O)nn2)cc1 [Compound 96] | 12 ± 0.82 | 5.56 ± 0.8 | 29.7 ± 1.23 | 6.65 ± 1.29 | 15.5 ± 1.31 (≈ 19 µM) | 16.8 ± 0.422 (≈ 20.7 µM) | 16.9 ± 0.462 (≈ 20.7 µM) |  |  | less than that of Icaritin |  |  |  |  |  |  | IC50 compared with Icaritin, 48 and 72 h ([1]; HepG2 and SMMC7721, 48 and 72 h): less than those of Icaritin; IC50 compared with Icaritin, SMMC7721 72 h [2]: less than that of Icaritin; solubility compared with that of the bulk drug (Icaritin) [3]: improved effectively; solubility ([3]; saline or isotonic): 16.8 ± 0.313 µg/mL (≈ 20.7 µM)
